Data on ten compounds can be found in article PMC3177608 (ACS chemical biology, 2011).

In general, IC50 refers to the concentration needed to halve the response being measured. In general, inhibition refers to how much of the control response was suppressed.

Data set [1] has as its target T1, Kir2.1 (Mus musculus, UniProt P35561).
T1 sequence (P35561 1-428): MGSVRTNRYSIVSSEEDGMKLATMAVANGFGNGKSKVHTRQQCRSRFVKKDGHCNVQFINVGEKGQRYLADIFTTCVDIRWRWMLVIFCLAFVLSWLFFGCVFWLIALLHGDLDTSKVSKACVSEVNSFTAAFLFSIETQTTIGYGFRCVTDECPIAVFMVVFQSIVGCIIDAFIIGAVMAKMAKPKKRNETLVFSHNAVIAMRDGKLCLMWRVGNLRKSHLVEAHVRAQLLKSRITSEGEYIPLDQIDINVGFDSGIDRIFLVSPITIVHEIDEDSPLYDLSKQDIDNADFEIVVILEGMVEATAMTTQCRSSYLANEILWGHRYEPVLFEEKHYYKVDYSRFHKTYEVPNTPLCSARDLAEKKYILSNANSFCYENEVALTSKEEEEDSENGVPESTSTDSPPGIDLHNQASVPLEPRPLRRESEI
The experiment in a line: whole cell.

Data set [2] has as its target T1, Kir2.1. The experiment in a line: inside-out patch, compound applied from intracellular side. It counts as cell-based. Conditions: IC50 Kir2.1, inside-out patch, pH 6.5, applied from intracellular side.
Data set [3] addresses T2, Kir1.1 (Rattus norvegicus, UniProt P35560).
T2 sequence (P35560 1-391): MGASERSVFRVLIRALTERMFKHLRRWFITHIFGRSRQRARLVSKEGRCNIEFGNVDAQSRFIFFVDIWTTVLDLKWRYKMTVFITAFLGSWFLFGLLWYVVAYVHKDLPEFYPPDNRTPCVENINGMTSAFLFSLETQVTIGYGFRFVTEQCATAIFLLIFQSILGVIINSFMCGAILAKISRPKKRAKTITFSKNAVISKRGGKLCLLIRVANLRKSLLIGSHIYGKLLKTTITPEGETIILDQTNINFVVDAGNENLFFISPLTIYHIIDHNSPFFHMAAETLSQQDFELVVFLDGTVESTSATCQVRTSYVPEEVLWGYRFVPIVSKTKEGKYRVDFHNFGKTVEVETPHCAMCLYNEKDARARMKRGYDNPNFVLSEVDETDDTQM
The data set is described as follows: whole cell patch clamp, Kir1.1. It counts as cell-based. (Patch clamp records ionic current or voltage across a cell membrane.)

Data set [4] has as its target T3, C25 chimera (Mus musculus, UniProt P35561, A121P/A131S/A173S/C101L/C149F/C169V/C89I/D114R/D152E/D172N/DEL116-120/E125N/E153Q/F103W/F129M/F98L/G111K/I106V/I137L/I156T/I175M/I176C/I87V/INS113PEFYPPDN/L105V/L108Y/L109V/L90T/L94G/L97F/M160L/M180L/P155A/S124E/S128G/T141V/V102L/V126I/V158I/V161L/V162I/V167L/V179I/V86T/V93L/W104Y).
T3 sequence (P35561 with tags, fused parts or gaps V86T/I87V/C89I/L90T/V93L/L94G/L97F/F98L/C101L/V102L/F103W/W104Y/L105V/I106V/L108Y/L109V/G111K/INS113PEFYPPDN/D114R/DEL116-120/A121P/S124E/E125N/V126I/S128G/F129M/A131S/I137L/T141V/C149F/D152E/E153Q/P155A/I156T/V158I/M160L/V161L/V162I/V167L/C169V/D172N/A173S/I175M/I176C/V179I/M180L): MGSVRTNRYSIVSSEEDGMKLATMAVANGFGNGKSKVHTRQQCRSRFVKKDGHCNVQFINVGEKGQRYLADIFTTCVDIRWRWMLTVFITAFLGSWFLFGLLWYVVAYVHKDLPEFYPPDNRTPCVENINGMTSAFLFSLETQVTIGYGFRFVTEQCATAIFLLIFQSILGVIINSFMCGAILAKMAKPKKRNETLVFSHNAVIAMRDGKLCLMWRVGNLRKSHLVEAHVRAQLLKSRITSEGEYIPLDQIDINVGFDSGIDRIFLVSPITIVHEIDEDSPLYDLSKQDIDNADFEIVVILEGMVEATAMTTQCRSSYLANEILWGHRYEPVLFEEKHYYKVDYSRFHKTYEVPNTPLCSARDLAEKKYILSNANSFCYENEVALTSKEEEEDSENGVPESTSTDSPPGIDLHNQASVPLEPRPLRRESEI
The data set is described as follows: patch clamp, C25 chimera. Type of data set: cell-based, mouse/rat. Conditions: for inhibition of C25 current: pH 7.4.

Data set [5] has as its system L-type calcium channels. The experiment in a line: Ricerca Lead Profiling Screen radioligand binding.
Data set [6] deals with N-type calcium channels (Rattus norvegicus, UniProt Q02294). The experiment in a line: Ricerca Lead Profiling Screen radioligand binding.
N-type calcium channels, sequence (Q02294 whole entry): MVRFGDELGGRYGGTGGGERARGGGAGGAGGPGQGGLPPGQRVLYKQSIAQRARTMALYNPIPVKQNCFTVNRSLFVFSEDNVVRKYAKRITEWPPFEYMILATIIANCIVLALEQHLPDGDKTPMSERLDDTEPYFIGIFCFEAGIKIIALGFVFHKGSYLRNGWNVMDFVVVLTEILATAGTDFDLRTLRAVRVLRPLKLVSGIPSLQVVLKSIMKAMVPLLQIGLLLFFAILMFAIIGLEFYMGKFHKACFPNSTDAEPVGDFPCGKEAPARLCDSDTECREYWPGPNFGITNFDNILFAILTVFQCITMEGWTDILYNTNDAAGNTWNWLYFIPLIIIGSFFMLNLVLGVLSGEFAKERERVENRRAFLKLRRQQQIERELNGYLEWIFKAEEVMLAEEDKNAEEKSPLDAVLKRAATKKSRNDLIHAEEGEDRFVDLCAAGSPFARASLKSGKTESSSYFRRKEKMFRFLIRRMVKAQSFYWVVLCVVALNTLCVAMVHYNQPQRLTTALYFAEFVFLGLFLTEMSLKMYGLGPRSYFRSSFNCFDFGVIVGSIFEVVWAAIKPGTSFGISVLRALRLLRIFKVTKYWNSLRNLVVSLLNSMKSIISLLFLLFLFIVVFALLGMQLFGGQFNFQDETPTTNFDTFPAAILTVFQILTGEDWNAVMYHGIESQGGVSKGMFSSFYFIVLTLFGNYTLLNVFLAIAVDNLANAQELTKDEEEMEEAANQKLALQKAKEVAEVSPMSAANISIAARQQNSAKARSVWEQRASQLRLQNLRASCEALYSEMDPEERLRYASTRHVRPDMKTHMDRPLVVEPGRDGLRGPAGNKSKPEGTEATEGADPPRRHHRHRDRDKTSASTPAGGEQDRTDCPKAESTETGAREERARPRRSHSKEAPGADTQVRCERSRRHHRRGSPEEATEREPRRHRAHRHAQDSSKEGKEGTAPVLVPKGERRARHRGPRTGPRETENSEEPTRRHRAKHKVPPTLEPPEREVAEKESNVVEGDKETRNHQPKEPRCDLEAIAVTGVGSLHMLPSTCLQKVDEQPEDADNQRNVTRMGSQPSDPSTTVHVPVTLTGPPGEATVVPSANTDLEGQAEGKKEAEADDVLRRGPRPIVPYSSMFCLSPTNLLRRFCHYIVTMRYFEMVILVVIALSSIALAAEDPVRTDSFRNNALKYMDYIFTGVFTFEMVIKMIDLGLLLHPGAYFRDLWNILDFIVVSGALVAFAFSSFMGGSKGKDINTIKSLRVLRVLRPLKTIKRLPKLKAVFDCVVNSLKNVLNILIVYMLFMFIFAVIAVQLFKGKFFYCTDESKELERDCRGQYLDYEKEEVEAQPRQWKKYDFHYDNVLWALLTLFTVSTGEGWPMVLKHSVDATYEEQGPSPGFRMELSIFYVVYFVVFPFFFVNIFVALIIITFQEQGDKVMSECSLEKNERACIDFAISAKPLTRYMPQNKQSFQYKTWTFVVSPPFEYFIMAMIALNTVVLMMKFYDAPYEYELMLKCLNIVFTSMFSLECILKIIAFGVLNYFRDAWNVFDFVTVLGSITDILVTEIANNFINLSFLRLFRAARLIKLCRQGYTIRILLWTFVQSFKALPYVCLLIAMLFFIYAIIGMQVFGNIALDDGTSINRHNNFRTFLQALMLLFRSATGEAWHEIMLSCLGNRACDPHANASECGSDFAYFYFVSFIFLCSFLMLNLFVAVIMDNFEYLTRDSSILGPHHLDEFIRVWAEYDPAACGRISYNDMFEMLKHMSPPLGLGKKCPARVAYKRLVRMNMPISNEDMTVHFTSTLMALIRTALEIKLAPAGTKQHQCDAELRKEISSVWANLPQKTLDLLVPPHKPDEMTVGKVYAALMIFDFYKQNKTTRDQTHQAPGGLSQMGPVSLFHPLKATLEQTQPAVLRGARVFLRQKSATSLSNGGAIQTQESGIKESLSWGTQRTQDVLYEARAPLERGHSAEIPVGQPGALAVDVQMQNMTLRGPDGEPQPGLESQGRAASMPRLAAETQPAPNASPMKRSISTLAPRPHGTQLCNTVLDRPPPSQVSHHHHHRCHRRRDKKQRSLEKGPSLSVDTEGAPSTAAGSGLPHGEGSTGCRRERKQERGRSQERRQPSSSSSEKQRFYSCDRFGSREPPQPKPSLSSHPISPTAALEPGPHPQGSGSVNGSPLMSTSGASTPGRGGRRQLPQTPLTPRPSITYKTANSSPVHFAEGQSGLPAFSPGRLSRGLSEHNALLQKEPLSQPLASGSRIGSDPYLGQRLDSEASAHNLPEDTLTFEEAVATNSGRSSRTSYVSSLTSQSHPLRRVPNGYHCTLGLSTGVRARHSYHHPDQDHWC
The target of data set [7] is hERG (Homo sapiens, UniProt Q12809). The data set is described as follows: Ricerca Lead Profiling Screen radioligand binding.
hERG, sequence (Q12809 whole entry): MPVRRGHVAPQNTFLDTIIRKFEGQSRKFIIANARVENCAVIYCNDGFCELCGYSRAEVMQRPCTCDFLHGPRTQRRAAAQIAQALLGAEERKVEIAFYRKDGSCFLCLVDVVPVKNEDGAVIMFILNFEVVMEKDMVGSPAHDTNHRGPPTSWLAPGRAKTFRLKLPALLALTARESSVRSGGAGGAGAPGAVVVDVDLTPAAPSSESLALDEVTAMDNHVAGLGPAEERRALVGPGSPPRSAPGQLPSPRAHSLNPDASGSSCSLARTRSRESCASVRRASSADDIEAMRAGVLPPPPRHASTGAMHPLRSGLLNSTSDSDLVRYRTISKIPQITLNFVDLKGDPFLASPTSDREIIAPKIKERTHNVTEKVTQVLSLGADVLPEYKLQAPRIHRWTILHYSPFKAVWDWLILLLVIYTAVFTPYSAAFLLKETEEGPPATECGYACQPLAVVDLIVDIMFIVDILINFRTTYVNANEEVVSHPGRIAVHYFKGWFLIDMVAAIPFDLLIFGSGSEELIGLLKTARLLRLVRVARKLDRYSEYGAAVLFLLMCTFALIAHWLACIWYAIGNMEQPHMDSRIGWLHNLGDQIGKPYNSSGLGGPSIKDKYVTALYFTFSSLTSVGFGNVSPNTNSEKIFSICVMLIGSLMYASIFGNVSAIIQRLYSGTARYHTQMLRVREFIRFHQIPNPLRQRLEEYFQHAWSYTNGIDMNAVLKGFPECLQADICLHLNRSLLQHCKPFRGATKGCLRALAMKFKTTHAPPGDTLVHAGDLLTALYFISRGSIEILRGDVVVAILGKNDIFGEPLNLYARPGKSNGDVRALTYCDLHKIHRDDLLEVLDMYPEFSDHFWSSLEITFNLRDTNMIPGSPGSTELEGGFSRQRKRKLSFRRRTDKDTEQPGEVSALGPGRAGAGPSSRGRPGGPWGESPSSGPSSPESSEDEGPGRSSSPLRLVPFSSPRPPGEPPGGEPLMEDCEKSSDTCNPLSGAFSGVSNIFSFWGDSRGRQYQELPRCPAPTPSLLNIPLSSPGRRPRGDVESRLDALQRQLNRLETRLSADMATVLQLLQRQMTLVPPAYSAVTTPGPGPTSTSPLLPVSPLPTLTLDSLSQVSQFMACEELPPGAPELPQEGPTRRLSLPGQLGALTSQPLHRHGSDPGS
The nature of data set [8]: Ricerca Lead Profiling Screen, 68 radioligand binding assays. Conditions: GPCRs, ion channels and transporters.
In data set [9] the target is 1A2 (Homo sapiens, UniProt P05177).
For data set [10], the target named is 2D6 (Homo sapiens, UniProt P10635).
The conditions of data set [11]: PubChem database; cited from earlier work.
Data set [12] is described as follows: protein binding, rat.
Data set [13] in a line: protein binding, human.
Data set [14] has as its target 3A4 (Homo sapiens, UniProt P08684). The data set is described as follows: CYP450 inhibition assay.
Data set [15] addresses 2C9 (Homo sapiens, UniProt P11712). The data set is described as follows: CYP450 inhibition assay.
The nature of data set [16]: intrinsic clearance, rat.
Data set [17] is described as follows: intrinsic clearance, human.
In data set [18] the target is C25 N172D (Mus musculus, UniProt P35561, A121P/A131S/A173S/C101L/C149F/C169V/C89I/D114R/D152E/DEL116-120/E125N/E153Q/F103W/F129M/F98L/G111K/I106V/I137L/I156T/I175M/I176C/I87V/INS113PEFYPPDN/L105V/L108Y/L109V/L90T/L94G/L97F/M160L/M180L/P155A/S124E/S128G/T141V/V102L/V126I/V158I/V161L/V162I/V167L/V179I/V86T/V93L/W104Y). The experiment in a line: patch clamp, C25 N172D mutant. Conditions: pH 7.4.

In data set [19] the target is hKir2.3 (Homo sapiens, UniProt P48050). The experiment in a line: whole cell patch clamp, Kir2.3.
In data set [20] the target is hKir2.6 (Homo sapiens, UniProt B7U540). The experiment in a line: whole cell patch clamp, Kir2.6.
Data set [21] has as its target rKir4.1 (Rattus norvegicus, UniProt P49655). The experiment in a line: whole cell patch clamp, Kir4.1.
The target of data set [22] is hKir7.1 (Homo sapiens, UniProt O60928). The data set is described as follows: whole cell patch clamp, Kir7.1. Conditions: IC50 Kir7.1, pH 7.4.
hKir7.1, sequence (O60928 whole entry): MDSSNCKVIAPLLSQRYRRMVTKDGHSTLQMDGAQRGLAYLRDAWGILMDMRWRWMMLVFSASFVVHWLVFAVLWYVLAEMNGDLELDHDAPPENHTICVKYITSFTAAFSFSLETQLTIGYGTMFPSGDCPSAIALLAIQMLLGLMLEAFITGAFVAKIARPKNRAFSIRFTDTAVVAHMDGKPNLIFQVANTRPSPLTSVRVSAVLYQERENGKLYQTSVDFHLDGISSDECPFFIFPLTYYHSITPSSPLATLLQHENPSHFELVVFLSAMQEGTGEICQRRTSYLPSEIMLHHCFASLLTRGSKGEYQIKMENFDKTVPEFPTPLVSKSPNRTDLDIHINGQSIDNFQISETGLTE
The target of data set [23] is Kir2.1 D172N (Mus musculus, UniProt P35561, D172N). The experiment in a line: patch clamp, Kir2.1 D172N mutant.
For data set [24], the target named is Kir1.1 N171D (Rattus norvegicus, UniProt P35560, N171D). The data set is described as follows: patch clamp, Kir1.1 N171D mutant.
Kir1.1 N171D, sequence (P35560 whole entry N171D): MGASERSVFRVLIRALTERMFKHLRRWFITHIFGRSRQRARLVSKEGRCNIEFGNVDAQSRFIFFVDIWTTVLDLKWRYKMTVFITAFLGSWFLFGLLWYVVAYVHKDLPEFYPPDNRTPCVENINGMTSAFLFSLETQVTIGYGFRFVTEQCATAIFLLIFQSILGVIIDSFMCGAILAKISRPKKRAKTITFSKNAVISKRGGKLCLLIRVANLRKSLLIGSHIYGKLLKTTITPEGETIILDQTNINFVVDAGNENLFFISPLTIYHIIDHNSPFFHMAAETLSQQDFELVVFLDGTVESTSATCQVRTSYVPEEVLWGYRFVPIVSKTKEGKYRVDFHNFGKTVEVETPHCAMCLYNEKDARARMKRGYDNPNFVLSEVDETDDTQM
Data set [25] addresses Kir2.1 D172N/I176C (Mus musculus, UniProt P35561, D172N/I176C). The experiment in a line: patch clamp, Kir2.1 D172N/I176C mutant.
Data set [26] has as its target Kir1.1 N171D/C175I (Rattus norvegicus, UniProt P35560, C175I/N171D). The data set is described as follows: patch clamp, Kir1.1 N171D/C175I mutant.
Data set [27] concerns the target C25 N172D/M175I/C176I (Mus musculus, UniProt P35561, A121P/A131S/A173S/C101L/C149F/C169V/C89I/D114R/D152E/DEL116-120/E125N/E153Q/F103W/F129M/F98L/G111K/I106V/I137L/I156T/I87V/INS113PEFYPPDN/L105V/L108Y/L109V/L90T/L94G/L97F/M160L/M180L/P155A/S124E/S128G/T141V/V102L/V126I/V158I/V161L/V162I/V167L/V179I/V86T/V93L/W104Y). The data set is described as follows: patch clamp, C25 N172D/M175I/C176I mutant.

The subject of data set [28] is KATP channel. Conditions: read-out: KATP channel IC50; cited from earlier work.
Where [29] appears, read: read-out: IC50 Kir2.1, pH 8.5, manual patch clamp.
The mark [30] stands for this setting: pH 7.4, read-out: inhibition of C25 current.

Several values for one entry are separate records, joined by “and”; a condition that tells them apart may be missing. Equal values may be shown once. Entries after “also recorded” stand apart in the source; their conditions may differ.

Kir1.1 N171D/C175I, sequence (P35560 whole entry N171D/C175I): as the sequence (P35560 whole entry N171D) above, with C175I counted along it
2C9, sequence (P11712 whole entry): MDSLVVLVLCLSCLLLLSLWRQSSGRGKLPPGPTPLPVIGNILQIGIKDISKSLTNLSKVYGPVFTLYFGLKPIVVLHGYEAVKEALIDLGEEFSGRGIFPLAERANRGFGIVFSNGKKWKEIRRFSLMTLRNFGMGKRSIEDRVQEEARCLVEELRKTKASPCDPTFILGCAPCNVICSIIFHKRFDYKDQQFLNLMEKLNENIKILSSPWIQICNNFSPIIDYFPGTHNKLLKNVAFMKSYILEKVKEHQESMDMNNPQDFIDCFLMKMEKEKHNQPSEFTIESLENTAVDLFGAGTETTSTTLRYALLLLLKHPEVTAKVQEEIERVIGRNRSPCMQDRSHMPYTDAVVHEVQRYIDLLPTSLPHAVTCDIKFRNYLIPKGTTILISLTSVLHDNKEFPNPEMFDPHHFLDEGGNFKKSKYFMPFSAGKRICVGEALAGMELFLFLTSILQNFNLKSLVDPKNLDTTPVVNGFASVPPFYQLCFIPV

For `COc1ccc(CNCc2ccc(Cl)cc2Cl)cc1` [13c], the IC50 in data set [1] (setting [29]) stood at 3.89 µM.
For the compound `COc1ccc(CNCc2ccc(Cl)cc2)cc1` [14a], the IC50 in data set [1] (setting [29]) came out at 0.77 µM.
With `COc1ccc(CNCc2cccc(Cl)c2)cc1` [14b], the IC50 in data set [1] (setting [29]) came to 1.06 µM.
Take `COc1ccc(CNCc2ccc(C(C)(C)C)cc2)cc1` [14d]: the 50% inhibitory concentration (IC50) in data set [1] (setting [29]) was 1.39 µM.
Turning to `COc1ccc(CNCc2ccccc2C)cc1` [14e], the IC50 in data set [1] (setting [29]) was found to be 5.15 µM.
In the case of `COc1ccc(CNCc2ccc(OC)cc2)cc1` [14g], in data set [1] (read-out: IC50 Kir2.1, pH 7.4, whole cell, compound applied extracellularly), the IC50 amounted to 35 µM.
Consider `COc1ccc(CNCc2ccccc2Cl)cc1` [14j], for which, in data set [1] (setting [29]), the half-maximal inhibitory concentration (IC50) came to 13.9 µM.
Take `COc1ccc(CNCc2cccc3ccccc23)cc1` [ML133, N-(4-methoxybenzyl)-1-(naphthalen-1-yl)methanamine]: the IC50 is 2.6 µM in [2]; 85.5 µM in data set [3] (IC50 Kir1.1 (estimated), pH 8.5); above 300 µM in data set [3] (IC50 Kir1.1, pH 7.4); 3.3 µM in data set [9]; 0.13 µM in data set [10]; above 30 µM in [14]. Moreover, the 50% inhibitory concentration (IC50) in data set [15] was above 30 µM; in [18] (IC50 C25 N172D), 75 µM and 75.2 µM; in data set [19], 4 µM; in [20], 2.8 µM; in [21], 76 µM; in data set [22], 33 µM and 32.9 µM. In addition, the IC50 in [23] (IC50 Kir2.1 D172N, pH 7.4) is 15 µM and 15.4 µM; in data set [24] it was 83.6 µM; in data set [25] (IC50 Kir2.1 D172N/I176C, pH 7.4) it was 45 µM and 43.6 µM; in [26] it was 64 µM; in data set [27] it was 5.8 µM; in [1] (IC50 Kir2.1, pH 6.5, whole cell), 10 µM. This compound registered a half-inhibitory concentration (IC50) in data set [1] (IC50 Kir2.1, pH 8.5, manual patch clamp) of 0.29 µM. Besides, the “effect on Kir1.1 current” value in data set [3] (pH 7.4, up to 300 μM) is listed as “essentially insensitive; also recorded: not inhibited”. Further, the “inhibition of C25 current” value is reported as “resistant” in data set [4] (30 μM) and “slightly inhibited” in data set [4] (100 μM). In addition, the inhibition at 30 µM in data set [4] (setting [30]) is below 20%. Further, the inhibition at 100 µM in data set [4] (setting [30]) is around 30%. In data set [5], the “activity at L-type calcium channels” value is “inactive”. In addition, in [6], the “activity at N-type calcium channels” value was “inactive”. For the same compound, the “activity at hERG” value in data set [7] is “inactive”. Also, the “ancillary pharmacology in 68-assay radioligand binding panel” value in data set [8] is recorded as “clean ancillary pharmacology; also recorded: clean profile”. Further, the “activity in MLPCN HTS assays not based on Kir2.1” value in data set [11] is “inactive in all but two of 213 MLPCN HTS assays”. For the same compound, the protein bound in [12] and in data set [13] was above 99% throughout. The intrinsic clearance result in data set [16] and in data set [17] was “high intrinsic clearance” each time. Further, the “Hill coefficient (NH) C25 N172D” value in [18] was 2.2. Also, in [23], the “Hill coefficient (NH) Kir2.1 D172N” value was determined as 1.3. In addition, the “Hill coefficient (NH) Kir1.1 N171D” value in [24] was 1.6. For the same compound, the “Hill coefficient (NH) Kir2.1 D172N/I176C” value in [25] is reported as 1.8. Also, the “Hill coefficient (NH) Kir1.1 N171D/C175I” value in data set [26] was 2.3. Moreover, the “Hill coefficient (NH) C25 triple mutant” value in [27] (pH 7.4) is 1.1. The “effect on Kir2.1 currents” value in data set [1] (3 μM, pH 6.5, 20 minute incubation) is recorded as “no significant effect”. Besides, the “time to complete inhibition of Kir2.1” value in data set [1] (3 μM, pH 8.5) was at most 5 min. Further, the “wash out of compound effects” value in data set [1] (3 μM, pH 8.5) is reported as “approximately 10 minutes”. The “Hill coefficient (NH) Kir2.1” value in data set [1] (pH 6.5) was 1.8; in data set [1] (pH 7.4), 1.7; in [1] (pH 8.5), 4.0.
Consider `[Ba+2]` [barium, reference compound], for which the “inhibition of Kir1.1” value in [3] (5 mM) is given as “completely inhibited”. Also, in data set [3] (at the end of the recording), the “inhibition of Kir1.1 current” value was “over 85%”.
For `COc1ccc(Cl)cc1C(=O)NCCc1ccc(S(=O)(=O)NC(=O)NC2CCCCC2)cc1` [glibenclamide], the IC50 in [28] is […].
